Values of other authors in patent publication US8168241B2, “Performance-enhancing dietary supplement” (Reliv International, Inc., priority 1998, dated 2012).

Assays:
[1] = co-administration of piper nigrum extract; double blind studies
[2] = resulting from the ingestion of CLA

Compound: COC1=C(OC)C(=O)C(C/C=C(\C)CC/C=C(\C)CC/C=C(\C)CC/C=C(\C)CC/C=C(\C)CC/C=C(\C)CC/C=C(\C)CC/C=C(\C)CC/C=C(\C)CCC=C(C)C)=C(C)C1=O [coenzyme Q10]
- bioavailability [1]: significantly increased

Compound: conjugated linoleic acid [CLA]
- reduction in body fat [2]: ≤ 20%
